The source of these data is patent publication US20240116921A1, “LACTAM (HETERO)[…] DERIVATIVES AS INHIBITORS OF ERBB2” (EnLiven Therapeutics, Inc., priority 2020, published 2024).

The target in assay [1] is T1, phosphorylated EGFR (pEGFR) (Homo sapiens, UniProt P00533).
T1 construct: performed to measure phosphorylated EGFR levels using A431 cells (10% FBS); endogenous in cells; host or cells: A431
The assay can be described thus: Detection of phosphorylated EGFR (pEGFR) in EGF-stimulated A431 cells. It counts as cell-based. The settings on record: A431 cells (10% FBS), 4 hours incubation, EGF 30 ng/mL 10 minutes, AlphaLISA. A digest of the protocol: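 A431 cells in 10% FBS were preincubated with compound for 4 h at 37 °C, then stimulated with EGF (30 ng/mL final) for 10 min. pEGFR in lysates was read by AlphaLISA. % inhibition was calculated against DMSO and staurosporine-treated controls, and IC50 came from a four-parameter curve fit.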

Assay [2] has as its target Ba/F3 ERBB2 A775_G776insYVMA (Homo sapiens, UniProt P04626, DUP772-775, cells depend on it). The assay can be described thus: Cell viability assay, Ba/F3 ERBB2 A775_G776insYVMA. It counts as cell-based, mouse. The settings on record: Ba/F3 ERBB2 YVMA cells, cell viability, 72 hours, CellTiter Glo; Table B5; read-out: Ba/F3 ERBB2 YVMA, IC50. Put shortly: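 IL-3-independent Ba/F3 lines stably expressing the human ERBB2 insertion mutants were seeded at 3000 cells/well and exposed to compounds for 72 h at 37 °C, 5% CO2. Viability was read as ATP by CellTiter-Glo luminescence. Curves were fitted by sigmoidal nonlinear regression.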

The target of assay [3] is T2, phosphorylated ERBB2 (pERBB2) (Homo sapiens, UniProt P04626).
T2 construct: endogenous in cells; host or cells: BT-474
The assay is described as follows: Detection of phosphorylated ERBB2 (pERBB2) by ELISA in BT-474 cells. The format is cell-based. The settings on record: four hours incubation. A digest of the protocol:
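BT-474 cells (2.0×10^4/well) treated 4 h at 37 °C, 5% CO2 with compounds in four-fold dilutions from 10 µM to 0.01 nM. Lysate pERBB2 measured by ELISA with TMB read at 450 nm; % relative activity scaled between no-cell wells and 0.1% DMSO-treated cells.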

T2 sequence (P04626 23-1255): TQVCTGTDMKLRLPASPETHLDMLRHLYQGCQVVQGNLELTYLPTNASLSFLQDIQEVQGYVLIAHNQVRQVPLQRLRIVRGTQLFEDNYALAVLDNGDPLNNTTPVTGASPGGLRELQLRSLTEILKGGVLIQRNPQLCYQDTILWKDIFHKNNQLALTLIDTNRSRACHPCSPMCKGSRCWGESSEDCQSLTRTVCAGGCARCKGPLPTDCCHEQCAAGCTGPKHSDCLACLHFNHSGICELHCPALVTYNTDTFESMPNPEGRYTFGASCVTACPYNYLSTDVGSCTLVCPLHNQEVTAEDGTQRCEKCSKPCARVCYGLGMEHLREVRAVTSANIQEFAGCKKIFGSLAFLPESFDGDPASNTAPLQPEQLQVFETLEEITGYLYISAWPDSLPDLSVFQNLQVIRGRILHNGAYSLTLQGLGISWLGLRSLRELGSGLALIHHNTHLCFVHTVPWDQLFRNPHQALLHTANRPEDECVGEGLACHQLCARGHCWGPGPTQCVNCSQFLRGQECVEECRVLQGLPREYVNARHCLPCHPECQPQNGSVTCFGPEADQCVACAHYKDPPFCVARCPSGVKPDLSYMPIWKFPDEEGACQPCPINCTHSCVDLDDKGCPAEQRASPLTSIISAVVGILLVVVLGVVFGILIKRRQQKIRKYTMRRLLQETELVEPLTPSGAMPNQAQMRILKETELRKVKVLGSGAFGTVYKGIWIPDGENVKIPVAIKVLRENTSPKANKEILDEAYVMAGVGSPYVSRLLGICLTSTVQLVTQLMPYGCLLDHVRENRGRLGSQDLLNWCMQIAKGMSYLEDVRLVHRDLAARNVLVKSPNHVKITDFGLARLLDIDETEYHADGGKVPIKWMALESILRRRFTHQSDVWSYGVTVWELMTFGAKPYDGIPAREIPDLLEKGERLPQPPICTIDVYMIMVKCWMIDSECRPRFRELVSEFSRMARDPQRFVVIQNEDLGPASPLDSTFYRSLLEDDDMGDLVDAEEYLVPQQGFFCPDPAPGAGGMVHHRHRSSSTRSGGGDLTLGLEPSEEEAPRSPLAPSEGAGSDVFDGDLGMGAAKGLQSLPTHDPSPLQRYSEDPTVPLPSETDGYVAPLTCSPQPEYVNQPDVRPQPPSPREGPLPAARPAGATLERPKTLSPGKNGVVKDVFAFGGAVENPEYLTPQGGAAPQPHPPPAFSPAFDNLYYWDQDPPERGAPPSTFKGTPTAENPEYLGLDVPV
Ba/F3 ERBB2 A775_G776insYVMA, sequence (P04626 with tags, fused parts or gaps DUP772-775): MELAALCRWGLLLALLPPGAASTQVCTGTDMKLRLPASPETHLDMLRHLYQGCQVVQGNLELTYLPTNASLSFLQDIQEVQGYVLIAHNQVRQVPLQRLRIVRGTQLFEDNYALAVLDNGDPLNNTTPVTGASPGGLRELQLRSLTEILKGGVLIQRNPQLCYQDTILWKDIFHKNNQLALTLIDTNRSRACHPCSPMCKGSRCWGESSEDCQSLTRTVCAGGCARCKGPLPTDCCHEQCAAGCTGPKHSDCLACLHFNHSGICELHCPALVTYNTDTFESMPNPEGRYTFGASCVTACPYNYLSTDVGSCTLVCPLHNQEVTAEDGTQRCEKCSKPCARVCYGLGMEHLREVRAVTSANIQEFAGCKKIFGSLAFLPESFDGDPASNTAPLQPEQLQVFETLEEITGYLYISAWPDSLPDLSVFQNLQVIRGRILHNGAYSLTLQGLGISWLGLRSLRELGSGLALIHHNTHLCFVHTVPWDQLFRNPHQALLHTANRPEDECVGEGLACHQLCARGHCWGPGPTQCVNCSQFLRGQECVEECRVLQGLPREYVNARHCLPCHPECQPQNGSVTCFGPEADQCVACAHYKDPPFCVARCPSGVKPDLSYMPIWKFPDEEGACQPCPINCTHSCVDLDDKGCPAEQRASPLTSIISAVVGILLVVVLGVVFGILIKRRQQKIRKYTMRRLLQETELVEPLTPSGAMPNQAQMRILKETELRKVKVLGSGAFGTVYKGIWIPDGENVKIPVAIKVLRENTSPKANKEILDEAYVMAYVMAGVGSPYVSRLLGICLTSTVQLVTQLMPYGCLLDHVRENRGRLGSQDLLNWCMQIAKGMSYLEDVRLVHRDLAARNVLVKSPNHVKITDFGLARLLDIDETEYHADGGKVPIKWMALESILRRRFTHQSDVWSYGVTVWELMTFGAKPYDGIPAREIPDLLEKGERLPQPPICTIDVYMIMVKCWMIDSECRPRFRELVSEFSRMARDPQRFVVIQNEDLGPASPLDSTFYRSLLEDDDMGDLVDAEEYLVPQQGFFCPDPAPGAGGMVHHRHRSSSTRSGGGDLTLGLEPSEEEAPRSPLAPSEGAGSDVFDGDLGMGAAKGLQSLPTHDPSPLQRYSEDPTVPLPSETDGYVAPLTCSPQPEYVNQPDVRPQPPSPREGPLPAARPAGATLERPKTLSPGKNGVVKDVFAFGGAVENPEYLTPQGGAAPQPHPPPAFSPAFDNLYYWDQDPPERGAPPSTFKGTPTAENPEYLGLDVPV
T1 sequence (P00533 25-1210): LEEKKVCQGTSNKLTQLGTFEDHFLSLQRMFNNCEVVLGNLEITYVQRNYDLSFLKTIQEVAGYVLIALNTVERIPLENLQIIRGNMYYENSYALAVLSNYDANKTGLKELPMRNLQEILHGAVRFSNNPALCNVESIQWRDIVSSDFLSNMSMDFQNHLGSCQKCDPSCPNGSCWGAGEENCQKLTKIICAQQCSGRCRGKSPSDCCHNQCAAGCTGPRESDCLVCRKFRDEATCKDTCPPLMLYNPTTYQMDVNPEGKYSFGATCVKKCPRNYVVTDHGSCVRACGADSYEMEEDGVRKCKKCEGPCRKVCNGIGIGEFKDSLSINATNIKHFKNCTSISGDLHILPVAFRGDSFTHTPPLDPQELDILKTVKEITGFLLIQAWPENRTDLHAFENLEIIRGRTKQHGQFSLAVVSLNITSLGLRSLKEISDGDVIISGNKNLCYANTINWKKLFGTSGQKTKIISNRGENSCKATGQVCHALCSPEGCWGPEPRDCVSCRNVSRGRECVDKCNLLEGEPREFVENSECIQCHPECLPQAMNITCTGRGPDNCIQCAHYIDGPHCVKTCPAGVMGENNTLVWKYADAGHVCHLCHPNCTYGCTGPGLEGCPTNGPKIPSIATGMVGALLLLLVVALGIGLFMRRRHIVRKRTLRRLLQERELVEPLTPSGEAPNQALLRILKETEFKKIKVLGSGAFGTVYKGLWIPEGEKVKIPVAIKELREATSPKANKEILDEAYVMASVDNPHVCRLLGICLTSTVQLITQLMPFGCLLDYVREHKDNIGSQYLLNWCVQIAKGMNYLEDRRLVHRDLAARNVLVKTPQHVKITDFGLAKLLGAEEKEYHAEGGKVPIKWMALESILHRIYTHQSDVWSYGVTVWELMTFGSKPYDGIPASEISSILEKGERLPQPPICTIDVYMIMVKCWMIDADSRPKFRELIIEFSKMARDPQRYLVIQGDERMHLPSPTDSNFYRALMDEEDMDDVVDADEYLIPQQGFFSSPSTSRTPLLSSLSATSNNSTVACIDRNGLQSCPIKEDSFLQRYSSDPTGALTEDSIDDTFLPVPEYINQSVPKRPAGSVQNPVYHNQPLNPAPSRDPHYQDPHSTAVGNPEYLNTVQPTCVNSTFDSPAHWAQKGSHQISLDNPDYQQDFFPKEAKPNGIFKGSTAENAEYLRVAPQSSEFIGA

Regarding `CN(C)C/C=C1\CCN(c2cc3c(Nc4ccc(Oc5ccn6ncnc6c5)c(F)c4)ncnc3cn2)C1=O` [Compound 129, (3E)-3-[2-(dimethylamino)ethylidene]-1-{4-[(3-fluoro-4-{[1,2,4]triazolo[1,5-a]pyridin-7-yloxy}phenyl)amino]pyrido[3,4-d]pyrimidin-6-yl}pyrrolidin-2-one], the IC50 came out at 2320 nM in assay [1] and 11.9 nM in assay [3]. Besides, the GI50 in assay [2] stood at 19.3 nM.

Regarding `CN(C)C/C=C1\CCN(c2cc3c(Nc4ccc(Oc5cccnc5)c(F)c4)ncnc3cn2)C1=O` [Compound 125, (3E)-3-[2-(dimethylamino)ethylidene]-1-(4-{[3-fluoro-4-(pyridin-3-yloxy)phenyl]amino}pyrido[3,4-d]pyrimidin-6-yl)pyrrolidin-2-one], the figures for the IC50 in assay [1] and in assay [3] were 1140 nM and 42.8 nM, respectively. Also, the GI50 in assay [2] is 56 nM.

Take `Cc1cc(Nc2ncnc3cnc(N4CC(C)/C(=C\CN(C)C)C4=O)cc23)ccc1Oc1ccc2c(c1)nnn2C` (single isomer, unassigned) [Example S86, Enantiomer #1, (3E)-3-[2-(dimethylamino)ethylidene]-4-methyl-1-[4-({3-methyl-4-[(1-methyl-1,2,3-benzotriazol-5-yl)oxy]phenyl}amino)pyrido[3,4-d]pyrimidin-6-yl]pyrrolidin-2-one]: the IC50 was 574 nM in assay [1] and 11.5 nM in assay [3]. The GI50 in assay [2] amounted to 2.59 nM.

Turning to `Cc1cc(Nc2ncnc3ccc(N4C(=O)C(=CCN(C)C)C5CC54)nc23)ccc1Oc1ccn2ncnc2c1` (single isomer, unassigned) [Example S108, Enantiomer #2, 4-[2-(dimethylamino)ethylidene]-2-{4-[(3-methyl-4-{[1,2,4]triazolo[1,5-a]pyridin-7-yloxy}phenyl)amino]pyrido[3,2-d]pyrimidin-6-yl}-2-azabicyclo[3.1.0]hexan-3-one], the IC50 in assay [1] was found to be 175 nM; in assay [3] it was 12.7 nM. In assay [2], the GI50 worked out at 4.88 nM.

On to `CN(C)C/C=C1\CCN(c2ccc3ncnc(Nc4ccc(Oc5ccc6c(c5)ncn6C)c(F)c4)c3n2)C1=O` [Compound 91, (3E)-3-[2-(dimethylamino)ethylidene]-1-[4-({3-fluoro-4-[(1-methyl-1,3-benzodiazol-5-yl)oxy]phenyl}amino)pyrido[3,2-d]pyrimidin-6-yl]pyrrolidin-2-one], for which the half-maximal inhibitory concentration (IC50) is > 10000 nM in assay [1] and 18.9 nM in assay [3]. Also, in assay [2], the GI50 was 2.08 nM.

As to `Cc1cc(Nc2ncnc3cnc(N4CC(C)/C(=C\CN(C)C)C4=O)cc23)ccc1Oc1ccc2c(c1)nnn2C` (single isomer, unassigned) [Example S86, Enantiomer #2, (3E)-3-[2-(dimethylamino)ethylidene]-4-methyl-1-[4-({3-methyl-4-[(1-methyl-1,2,3-benzotriazol-5-yl)oxy]phenyl}amino)pyrido[3,4-d]pyrimidin-6-yl]pyrrolidin-2-one], the IC50 in assay [1] was > 10000 nM; in assay [3] it was 138 nM. For the same molecule, the GI50 in assay [2] was determined as 240 nM.

For the molecule `Cc1cc(Nc2ncnc3cnc(N4CC(C)C(=CCN(C)C)C4=O)cc23)ccc1Oc1ccc2c(c1)ncn2C` (single isomer, unassigned) [Example S97, Enantiomer #2, 3-[2-(dimethylamino)ethylidene]-4-methyl-1-[4-({3-methyl-4-[(1-methyl-1,3-benzodiazol-5-yl)oxy]phenyl}amino)pyrido[3,4-d]pyrimidin-6-yl]pyrrolidin-2-one], the IC50 is 490 nM in assay [1] and 21 nM in assay [3]. The GI50 in assay [2] is 4.12 nM.

Take `C=C1C(=O)N(c2ccc3ncnc(Nc4ccc(Cc5ccn6ncnc6c5)c(C)c4)c3c2)C2CC12` (single isomer, unassigned) [Example S79, Enantiomer #1, 2-(4-((4-([1,2,4]triazolo[1,5-a]pyridin-7-ylmethyl)-3-methylphenyl)amino)quinazolin-6-yl)-4-methylene-2-azabicyclo[3.1.0]hexan-3-one]: the half-inhibitory concentration (IC50) stood at 6100 nM in assay [1] and 36.6 nM in assay [3]. In addition, in assay [2], the GI50 is 32.1 nM.

As usually defined, the IC50 is the midpoint of a concentration-inhibition curve. A low value points to inhibition by little substance.
